Data reported in the NIST ThermoML archive (doi:10.1016/j.tca.2013.05.030).
Numbers after ± are expanded uncertainties.

Experiment: mn = molality of the nth substance listed, in mol/kg
Conditions: 101 kPa, Liquid; for viscosity: Capillary tube (Ostwald / Ubbelohde) method; for mass density: Pycnometric method; for speed of sound: Sing-around technique in a fixed-path interferometer

CC(C)Cc1ccc(C(C)C(=O)[O-])cc1.[Na+] (stereo not given) [sodium ibuprofen] + O
viscosity (298.15 K, m1 = 0.1048): 0.973 ± 0.009 mPa·s
viscosity (298.15 K, m1 = 0.1525): 1.007 ± 0.009 mPa·s
viscosity (298.15 K, m1 = 0.2231): 1.07 ± 0.01 mPa·s
viscosity (298.15 K, m1 = 0.3179): 1.173 ± 0.011 mPa·s
viscosity (298.15 K, m1 = 0.3721): 1.242 ± 0.011 mPa·s
viscosity (298.15 K, m1 = 0.4422): 1.342 ± 0.012 mPa·s
viscosity (298.15 K, m1 = 0.4678): 1.381 ± 0.012 mPa·s
mass density (298.15 K, m1 = 0.1048): 1001.4 ± 0.3 kg/m3
mass density (298.15 K, m1 = 0.1525): 1003.2 ± 0.3 kg/m3
mass density (298.15 K, m1 = 0.2231): 1005.8 ± 0.3 kg/m3
mass density (298.15 K, m1 = 0.3179): 1009.1 ± 0.4 kg/m3
mass density (298.15 K, m1 = 0.3721): 1010.9 ± 0.4 kg/m3
mass density (298.15 K, m1 = 0.4422): 1013.1 ± 0.4 kg/m3
mass density (298.15 K, m1 = 0.4678): 1013.9 ± 0.4 kg/m3
speed of sound (298.15 K, m1 = 0.1048): 1512.8 ± 1 m/s
speed of sound (298.15 K, m1 = 0.1525): 1518.4 ± 1 m/s
speed of sound (298.15 K, m1 = 0.2231): 1525.6 ± 1 m/s
speed of sound (298.15 K, m1 = 0.3179): 1533.2 ± 1 m/s
speed of sound (298.15 K, m1 = 0.3721): 1536.4 ± 1 m/s
speed of sound (298.15 K, m1 = 0.4422): 1540 ± 1 m/s
speed of sound (298.15 K, m1 = 0.4678): 1540.8 ± 1 m/s
viscosity (303.15 K, m1 = 0.1048): 0.867 ± 0.008 mPa·s
viscosity (303.15 K, m1 = 0.1525): 0.897 ± 0.008 mPa·s
viscosity (303.15 K, m1 = 0.2231): 0.953 ± 0.009 mPa·s
viscosity (303.15 K, m1 = 0.3179): 1.043 ± 0.01 mPa·s
viscosity (303.15 K, m1 = 0.3721): 1.104 ± 0.01 mPa·s
viscosity (303.15 K, m1 = 0.4422): 1.194 ± 0.011 mPa·s
viscosity (303.15 K, m1 = 0.4678): 1.228 ± 0.011 mPa·s
mass density (303.15 K, m1 = 0.1048): 999.9 ± 0.4 kg/m3
mass density (303.15 K, m1 = 0.1525): 1001.7 ± 0.4 kg/m3
mass density (303.15 K, m1 = 0.2231): 1004.3 ± 0.4 kg/m3
mass density (303.15 K, m1 = 0.3179): 1007.5 ± 0.4 kg/m3
mass density (303.15 K, m1 = 0.3721): 1009.3 ± 0.4 kg/m3
mass density (303.15 K, m1 = 0.4422): 1011.5 ± 0.4 kg/m3
mass density (303.15 K, m1 = 0.4678): 1012.3 ± 0.4 kg/m3
speed of sound (303.15 K, m1 = 0.1048): 1523.6 ± 1 m/s
speed of sound (303.15 K, m1 = 0.1525): 1528.4 ± 1 m/s
speed of sound (303.15 K, m1 = 0.2231): 1534.4 ± 1 m/s
speed of sound (303.15 K, m1 = 0.3179): 1540.8 ± 1 m/s
speed of sound (303.15 K, m1 = 0.3721): 1543.2 ± 1 m/s
speed of sound (303.15 K, m1 = 0.4422): 1546.4 ± 1 m/s
speed of sound (303.15 K, m1 = 0.4678): 1547.2 ± 1 m/s
viscosity (308.15 K, m1 = 0.1048): 0.78 ± 0.007 mPa·s
viscosity (308.15 K, m1 = 0.1525): 0.808 ± 0.007 mPa·s
viscosity (308.15 K, m1 = 0.2231): 0.857 ± 0.008 mPa·s
viscosity (308.15 K, m1 = 0.3179): 0.937 ± 0.009 mPa·s
viscosity (308.15 K, m1 = 0.3721): 0.992 ± 0.009 mPa·s
viscosity (308.15 K, m1 = 0.4422): 1.072 ± 0.01 mPa·s
viscosity (308.15 K, m1 = 0.4678): 1.104 ± 0.01 mPa·s
mass density (308.15 K, m1 = 0.1048): 998.2 ± 0.4 kg/m3
mass density (308.15 K, m1 = 0.1525): 1000 ± 0.4 kg/m3
mass density (308.15 K, m1 = 0.2231): 1002.5 ± 0.4 kg/m3
mass density (308.15 K, m1 = 0.3179): 1005.7 ± 0.4 kg/m3
mass density (308.15 K, m1 = 0.3721): 1007.4 ± 0.4 kg/m3
mass density (308.15 K, m1 = 0.4422): 1009.6 ± 0.4 kg/m3
mass density (308.15 K, m1 = 0.4678): 1010.4 ± 0.4 kg/m3
speed of sound (308.15 K, m1 = 0.1048): 1532 ± 1 m/s
speed of sound (308.15 K, m1 = 0.1525): 1536.4 ± 1 m/s
speed of sound (308.15 K, m1 = 0.2231): 1542 ± 1 m/s
speed of sound (308.15 K, m1 = 0.3179): 1548 ± 1 m/s
speed of sound (308.15 K, m1 = 0.3721): 1550.8 ± 1 m/s
speed of sound (308.15 K, m1 = 0.4422): 1553.6 ± 1 m/s
speed of sound (308.15 K, m1 = 0.4678): 1554.4 ± 1 m/s
viscosity (313.15 K, m1 = 0.1048): 0.707 ± 0.007 mPa·s
viscosity (313.15 K, m1 = 0.1525): 0.732 ± 0.007 mPa·s
viscosity (313.15 K, m1 = 0.2231): 0.777 ± 0.007 mPa·s
viscosity (313.15 K, m1 = 0.3179): 0.848 ± 0.008 mPa·s
viscosity (313.15 K, m1 = 0.3721): 0.898 ± 0.008 mPa·s
viscosity (313.15 K, m1 = 0.4422): 0.969 ± 0.009 mPa·s
viscosity (313.15 K, m1 = 0.4678): 0.997 ± 0.009 mPa·s
mass density (313.15 K, m1 = 0.1048): 996.3 ± 0.4 kg/m3
mass density (313.15 K, m1 = 0.1525): 998 ± 0.4 kg/m3
mass density (313.15 K, m1 = 0.2231): 1000.5 ± 0.4 kg/m3
mass density (313.15 K, m1 = 0.3179): 1003.6 ± 0.4 kg/m3
mass density (313.15 K, m1 = 0.3721): 1005.3 ± 0.4 kg/m3
mass density (313.15 K, m1 = 0.4422): 1007.4 ± 0.4 kg/m3
mass density (313.15 K, m1 = 0.4678): 1008.1 ± 0.4 kg/m3
speed of sound (313.15 K, m1 = 0.1048): 1539.2 ± 1 m/s
speed of sound (313.15 K, m1 = 0.1525): 1542.8 ± 1 m/s
speed of sound (313.15 K, m1 = 0.2231): 1547.6 ± 1 m/s
speed of sound (313.15 K, m1 = 0.3179): 1552.8 ± 1 m/s
speed of sound (313.15 K, m1 = 0.3721): 1555.2 ± 1 m/s
speed of sound (313.15 K, m1 = 0.4422): 1557.2 ± 1 m/s
speed of sound (313.15 K, m1 = 0.4678): 1558 ± 1 m/s

O [water] + CC(C)Cc1ccc(C(C)C(=O)[O-])cc1.[Na+]
speed of sound (313.15 K, m2 = 0): 1528.8 ± 1 m/s
